Measured values as given in patent publication US10844052B2, “LLS compounds for treatment of cancer” (THE REGENTS OF THE UNIVERSITY OF CALIFORNIA, priority 2016, dated 2020).

Tested on: SKOV3
Test: Anti-cancer activity against ovarian cancer cells SKOV3 (cell killing in solution / in vitro cell proliferation)
Type: cell-based
Conditions: Homo sapiens, SK-OV-3, ovarian cancer cells SKOV3
Protocol: Biotinylated LLS2 was synthesized in solution and loaded it onto a streptavidin-coated plate. The biotinylated LLS2 immobilized on the plate killed approximately 21% of SKOV3 ovarian cancer cells at 100 μM loading, 16% at 50 μM and 14% at 25 μM (FIG. 4). The killing effect of the LLS2 compound was also tested in solution. […] In addition, LLS2 can kill pancreatic cancer cell line XPA3, prostate cancer cell line PC3, colon cancer cell line HT29, breast cancer cell line MCF7 and lung cancer cell line A549 (FIG. 4).

| Compound | IC50 [µM] |
| --- | --- |
| NC(=O)CC(NC(=O)[C@@H](N)Cc1ccc(Cl)c(Cl)c1)c1ccc2c(c1)nc(-c1ccc(N(CCO)CCO)cc1)n2Cc1ccc(F)c(F)c1 (stereo partly drawn) [LLS12, (2S)-2-amino-N-(3-amino-1-(2-(4-(bis(2-hydroxyethyl)amino)phenyl)-1-(3,4-difluorobenzyl)-1H-benzo[d]imidazol-5-yl)-3-oxopropyl)-3-(3,4-dichlorophenyl)propanamide] | > 50 |
| NC(=O)CC(c1ccc2c(c1)nc(-c1ccc(N(CCO)CCO)cc1)n2CC12CC3CC(CC(C3)C1)C2)N(Cc1ccc(Cl)c(Cl)c1)Cc1ccc(Cl)c(Cl)c1 (centres unmarked) [LLS29, 3-(1-(((1s,3s)-adamantan-1-yl)methyl)-2-(4-(bis(2-hydroxyethyl)amino)phenyl)-1H-benzo[d]imidazol-5-yl)-3-(bis(3,4-dichlorobenzyl)amino)propanamide] | 25.5 |
| CC(=O)OCCN(CCOC(C)=O)c1ccc(-c2nc3cc(C(CC(N)=O)NCc4ccc(Cl)c(Cl)c4)ccc3n2Cc2ccc(Cl)c(Cl)c2)cc1 (centres unmarked) [LLS20, ((4-(5-(3-amino-1-((3,4-dichlorobenzyl)amino)-3-oxopropyl)-1-(3,4-dichlorobenzyl)-1H-benzo[d]imidazol-2-yl)phenyl)azanediyl)bis(ethane-2,1-diyl) Diacetate] | 7.5 |
| NC(=O)CC(NC(=O)[C@@H](N)Cc1ccc(Cl)c(Cl)c1)c1ccc2c(c1)nc(-c1ccc(N(CCO)CCO)cc1)n2Cc1cc(F)ccc1F (stereo partly drawn) [LLS13, (2S)-2-amino-N-(3-amino-1-(2-(4-(bis(2-hydroxyethyl)amino)phenyl)-1-(2,5-difluorobenzyl)-1H-benzo[d]imidazol-5-yl)-3-oxopropyl)-3-(3,4-dichlorophenyl)propanamide] | > 50 |
| NC(=O)CC(NCc1ccc(Cl)c(Cl)c1)c1ccc2c(c1)nc(-c1ccc(N(CCO)CCO)cc1)n2Cc1ccc(C(F)(F)F)c(F)c1 (centres unmarked) [LLS27, 3-(2-(4-(bis(2-hydroxyethyl)amino)phenyl)-1-(3-fluoro-4-(trifluoromethyl)benzyl)-1H-benzo[d]imidazol-5-yl)-3-((3,4-dichlorobenzyl)amino)propanamide] | > 50 |
| CC(=O)OCCN(CCOC(C)=O)c1ccc(-c2nc3cc(C(CC(N)=O)NC(=O)[C@@H](N)Cc4ccc(Cl)c(Cl)c4)ccc3n2CC23CC4CC(CC(C4)C2)C3)cc1 (stereo partly drawn) [LLS6, ((4-(1-(((1s,3R)-adamantan-1-yl)methyl)-5-(3-amino-1-((S)-2-amino-3-(3,4-dichlorophenyl)propanamido)-3-oxopropyl)-1H-benzo[d]imidazol-2-yl)phenyl)azanediyl)bis(ethane-2,1-diyl) Diacetate] | 7.8 |
| CC(=O)OCCN(CCO)c1ccc(-c2nc3cc(C(CC(N)=O)NC(=O)[C@@H](N)Cc4ccc(Cl)c(Cl)c4)ccc3n2Cc2ccc(F)c(F)c2)cc1 (stereo partly drawn) [LLS5, 2-((4-(5-(3-amino-1-((S)-2-amino-3-(3,4-dichlorophenyl)propanamido)-3-oxopropyl)-1-(3,4-difluorobenzyl)-1H-benzo[d]imidazol-2-yl)phenyl)(2-hydroxyethyl)amino)ethyl Acetate] | 18.7 |
| CC(=O)OCCN(CCOC(C)=O)c1ccc(-c2nc3cc(C(CC(N)=O)NC(=O)Nc4ccc(Cl)c(Cl)c4)ccc3n2Cc2ccc(F)c(F)c2)cc1 (centres unmarked) [LLS16, ((4-(5-(3-amino-1-(3-(3,4-dichlorophenyl)ureido)-3-oxopropyl)-1-(3,4-difluorobenzyl)-1H-benzo[d]imidazol-2-yl)phenyl)azanediyl)bis(ethane-2,1-diyl) Diacetate] | 35.1 |
| CC(=O)OCCN(CCOC(C)=O)c1ccc(-c2nc3cc(C(CC(N)=O)NC(=O)[C@@H](N)Cc4ccc(F)c(F)c4)ccc3n2Cc2ccc(OC(F)(F)F)cc2)cc1 (stereo partly drawn) [LLS9, ((4-(5-(3-amino-1-((S)-2-amino-3-(3,4-difluorophenyl)propanamido)-3-oxopropyl)-1-(4-(trifluoromethoxy)benzyl)-1H-benzo[d]imidazol-2-yl)phenyl)azanediyl)bis(ethane-2,1-diyl) Diacetate] | 17.6 |
| NC(=O)CC(NCc1ccc(Cl)c(Cl)c1)c1ccc2c(c1)nc(-c1ccc(N(CCO)CCO)cc1)n2Cc1ccc(F)c(F)c1 (centres unmarked) [LLS19, 3-(2-(4-(bis(2-hydroxyethyl)amino)phenyl)-1-(3,4-difluorobenzyl)-1H-benzo[d]imidazol-5-yl)-3-((3,4-dichlorobenzyl)amino)propanamide] | 16.8 |
| CC(=O)OCCN(CCOC(C)=O)c1ccc(-c2nc3cc(C(CC(N)=O)NC(=O)[C@@H](N)Cc4ccc(Cl)c(Cl)c4)ccc3n2Cc2cc(F)ccc2F)cc1 (stereo partly drawn) [LLS10, ((4-(5-(3-amino-1-((S)-2-amino-3-(3,4-dichlorophenyl)propanamido)-3-oxopropyl)-1-(2,5-difluorobenzyl)-1H-benzo[d]imidazol-2-yl)phenyl)azanediyl)bis(ethane-2,1-diyl) Diacetate] | 36.4 |
| CC(=O)OCCN(CCOC(C)=O)c1ccc(CNC(CC(N)=O)c2ccc3c(c2)nc(-c2ccc(N(CCOC(C)=O)CCOC(C)=O)cc2)n3Cc2ccc(Cl)c(Cl)c2)cc1 (centres unmarked) [LLS37, ((4-(5-(3-amino-1-((4-(bis(2-acetoxyethyl)amino)benzyl)amino)-3-oxopropyl)-1-(3,4-dichlorobenzyl)-1H-benzo[d]imidazol-2-yl)phenyl)azanediyl)bis(ethane-2,1-diyl) Diacetate] | > 50 |
| CC(=O)OCCN(CCOC(C)=O)c1ccc(-c2nc3cc(C(CC(N)=O)NC(=O)Nc4ccc(C(F)(F)F)c(Cl)c4)ccc3n2Cc2ccc(F)c(F)c2)cc1 (centres unmarked) [LLS15, ((4-(5-(3-amino-1-(3-(3-chloro-4-(trifluoromethyl)phenyl)ureido)-3-oxopropyl)-1-(3,4-difluorobenzyl)-1H-benzo[d]imidazol-2-yl)phenyl)azanediyl)bis(ethane-2,1-diyl) Diacetate] | > 50 |
| CC(=O)OCCN(CCO)c1ccc(-c2nc3cc(C(CC(N)=O)NCc4ccc(Cl)c(Cl)c4)ccc3n2Cc2ccc(OC(F)(F)F)cc2)cc1 (centres unmarked) [LLS35, 2-((4-(5-(3-amino-1-((3,4-dichlorobenzyl)amino)-3-oxopropyl)-1-(4-(trifluoromethoxy)benzyl)-1H-benzo[d]imidazol-2-yl)phenyl)(2-hydroxyethyl)amino)ethyl Acetate] | 10.8 |
| CC(=O)OCCN(CCO)c1ccc(-c2nc3cc(C(CC(N)=O)NCc4ccc(Cl)c(Cl)c4)ccc3n2CC23CC4CC(CC(C4)C2)C3)cc1 (centres unmarked) [LLS32, 2-((4-(1-(((1s,3s)-adamantan-1-yl)methyl)-5-(3-amino-1-((3,4-dichlorobenzyl)amino)-3-oxopropyl)-1H-benzo[d]imidazol-2-yl)phenyl)(2-hydroxyethyl)amino)ethyl Acetate] | 10.4 |
| CC(=O)OCCN(CCOC(C)=O)c1ccc(-c2nc3cc(C(CC(N)=O)NCc4ccc(Cl)c(Cl)c4)ccc3n2CC23CC4CC(CC(C4)C2)C3)cc1 (centres unmarked) [LLS26, ((4-(1-(((1s,3s)-adamantan-1-yl)methyl)-5-(3-amino-1-((3,4-dichlorobenzyl)amino)-3-oxopropyl)-1H-benzo[d]imidazol-2-yl)phenyl)azanediyl)bis(ethane-2,1-diyl) Diacetate] | 10.5 |
| CC(=O)OCCN(CCOC(C)=O)c1ccc(-c2nc3cc(C(CC(N)=O)NCc4ccc(Cl)c(Cl)c4)ccc3n2Cc2ccc(OC(F)(F)F)cc2)cc1 (centres unmarked) [LLS23, ((4-(5-(3-amino-1-((3,4-dichlorobenzyl)amino)-3-oxopropyl)-1-(4-(trifluoromethoxy)benzyl)-1H-benzo[d]imidazol-2-yl)phenyl)azanediyl)bis(ethane-2,1-diyl) Diacetate] | 8.4 |
| NC(=O)CC(NCc1ccc(Cl)c(Cl)c1)c1ccc2c(c1)nc(-c1ccc(N(CCO)CCO)cc1)n2Cc1ccc(F)c(Cl)c1 (centres unmarked) [LLS31, 3-(2-(4-(bis(2-hydroxyethyl)amino)phenyl)-1-(3-chloro-4-fluorobenzyl)-1H-benzo[d]imidazol-5-yl)-3-((3,4-dichlorobenzyl)amino)propanamide] | 16.4 |
| CC(=O)OCCN(CCOC(C)=O)c1ccc(-c2nc3cc(C(CC(N)=O)NCc4ccc(F)c(F)c4)ccc3n2CC23CC4CC(CC(C4)C2)C3)cc1 (centres unmarked) [LLS8, ((4-(1-(((1s,3s)-adamantan-1-yl)methyl)-5-(3-amino-1-((3,4-difluorobenzyl)amino)-3-oxopropyl)-1H-benzo[d]imidazol-2-yl)phenyl)azanediyl)bis(ethane-2,1-diyl) Diacetate] | 16.7 |
| NC(=O)CC(NCc1ccc(Cl)c(Cl)c1)c1ccc2c(c1)nc(-c1ccc(-c3cccc(CO)n3)cc1)n2CC12CC3CC(CC(C3)C1)C2 (centres unmarked) [LLS7, 3-(1-(((1s,3s)-adamantan-1-yl)methyl)-2-(4-(6-(hydroxymethyl)pyridin-2-yl)phenyl)-1H-benzo[d]imidazol-5-yl)-3-((3,4-dichlorobenzyl)amino)propanamide] | > 50 |
| NC(=O)CC(NCc1ccc(Cl)c(Cl)c1)c1ccc2c(c1)nc(-c1ccc(N3CCOCC3)cc1)n2Cc1ccc(OC(F)(F)F)cc1 (centres unmarked) [LLS24, 3-((3,4-dichlorobenzyl)amino)-3-(2-(4-morpholinophenyl)-1-(4-(trifluoromethoxy)benzyl)-1H-benzo[d]imidazol-5-yl)propanamide] | 40.1 |
| NC(=O)CC(NCc1ccc(Cl)c(Cl)c1)c1ccc2c(c1)nc(-c1ccc(N(CCO)CCO)cc1)n2CC12CC3CC(CC(C3)C1)C2 (centres unmarked) [LLS28, 3-(1-(((1s,3s)-adamantan-1-yl)methyl)-2-(4-(bis(2-hydroxyethyl)amino)phenyl)-1H-benzo[d]imidazol-5-yl)-3-((3,4-dichlorobenzyl)amino)propanamide] | 16.1 |
| NC(=O)CC(NC(=O)[C@@H](N)Cc1ccc(F)c(F)c1)c1ccc2c(c1)nc(-c1ccc(N(CCO)CCO)cc1)n2Cc1ccc(F)c(F)c1 (stereo partly drawn) [LLS18, (2S)-2-amino-N-(3-amino-1-(2-(4-(bis(2-hydroxyethyl)amino)phenyl)-1-(3,4-difluorobenzyl)-1H-benzo[d]imidazol-5-yl)-3-oxopropyl)-3-(3,4-difluorophenyl)propanamide] | > 50 |
